Test system: lung gene expression
Assay: RNA sequencing of lung tissue (BLM/EL244 vs BLM)
Type: in vivo, mouse
Conditions: BLM/EL244 vs BLM, lung tissue
Protocol: RNA quality was assessed using an Agilent TapeStation 4150 with the High Sensitivity […] ScreenTape (Agilent), according to the manufacturer’s protocols. For library preparation, the QuantSeq 3’mRNA-Seq Library Prep Kit (Lexogen) was used according to manufacturer’s instructions. Briefly, 500 ng of RNA from each sample was used for first-strand synthesis, followed by RNA template removal, and second-strand synthesis initiated by random primers. In-line barcodes were introduced at this step, and this was followed by magnetic bead-based purification. The resulting libraries were amplified for 15 cycles and re-purified, with quantity and quality assessed on a Qubit 4 Fluorometer with the Invitrogen Qubit dsDNA HS Assay and an Agilent Tapestation 4150 with the High Sensitivity D1000 assay kit, respectively. The quantified libraries were pooled equimolarly; 50ng of total library mix was used for Adapter Conversion PCR Amplification using the Universal Library Conversion Kit (App-A), Version: V1.0 (MGI Tech Co., Ltd.), according to the manufacturer’s instructions.
The quantity and quality of the purified adapter conversion PCR (AC-PCR) product were evaluated on a Qubit 4 Fluorometer with the Invitrogen Qubit dsDNA HS Assay and on an Agilent Tapestation 4150 with the High Sensitivity D1000 assay kit, respectively. This was followed by DNA denaturation, Single-Strand Circularisation, Enzymatic Digestion, Enzymatic Digestion Product Cleanup and Quality Control steps on 1 pmol of AC-PCR product, according to the Universal Library Conversion Kit (App-A) User Manual (Version: A3).
Finally, 60 fmol of ssCirDNA were used for DNB preparation and sequencing on a DNBSEQ-G400 platform at the BSRC Alexander Fleming Genomics Facility, using a G400 App-A FCS SE100 High-throughput Sequencing Set (MGI Tech Co., Ltd.), according to the manufacturer’s instructions.
Alignment of the FASTQ files was performed against the mouse genome build mm10 using a custom Bash script.[143] Read counting on the 3′ UTRs and differential expression analysis were conducted using the metaseqR2 bioconductor package.[144] Genes corresponding to the following biotypes were excluded: polymorphic_pseudogene, processed_transcript, pseudogene, IG_V_pseudogene, misc_RNA, IG_C_gene, IG_J_gene, IG_D_gene, IG_LV_gene, TR_V_gene, TR_V_pseudogene, TEC, and processed_pseudogene. Gene counts were normalized with DESEQ[145] through metaseqR2. Genes with more than 10 counts in at least 50% of the samples were kept for further processing. For differential expression analysis, the PANDORA algorithm[146] was used to estimate a meta p-value integrating the results from the DESEQ, DESEQ2,[147] edgeR,[148] limma,[149] NBPSeq,[150] and NOISeq[151] algorithms. All additional parameters were set to default values.
Pathway enrichment analysis was performed for the Gene Ontology Biological process (BP) and Molecular Function (MF) terms through GeneCodis 4.[152] The volcano plots, scatterplots, Venn diagrams, and dot plots were generated using the ggplot2 Bioconductor package.

O=C1NC(=O)C(Cc2ccc(OCCC3CCN(C(=O)OCc4cc(Cl)cc(Cl)c4)CC3)cc2)S1 (stereo not shown) [EL244, 3,5-dichlorobenzyl 4-(2-(4-((2,4-dioxothiazolidin-5-yl)methyl)phenoxy)ethyl)piperidine-1-carboxylate]
1810020O05Rik log2 nFC: 1.58 | 1810020O05Rik nFC: 3.00 | 2410004I01Rik log2 nFC: 1.80 | 2410004I01Rik nFC: 3.47 | 9130230L23Rik log2 nFC: 1.34 | 9130230L23Rik nFC: 2.53 | 9330159F19Rik log2 nFC: 1.78 | 9330159F19Rik nFC: 3.43 | 9530026P05Rik log2 nFC: 3.17 | 9530026P05Rik nFC: 9.00 | A3galt2 log2 nFC: 2.32 | A3galt2 nFC: 5.00 | Acaa1b log2 nFC: 1.43 | Acaa1b nFC: 2.69 | Acot1 log2 nFC: 1.08 | Acot1 nFC: 2.11 | Acoxl log2 nFC: 1.23 | Acoxl nFC: 2.35 | Actc1 log2 nFC: 1.28 | Actc1 nFC: 2.42 | Adam3 log2 nFC: 1.67 | Adam3 nFC: 3.18 | Alas2 log2 nFC: 1.58 | Alas2 nFC: 2.99 | Ankrd63 log2 nFC: 1.34 | Ankrd63 nFC: 2.54 | Aqp9 log2 nFC: 1.66 | Aqp9 nFC: 3.15 | Arhgap28 log2 nFC: 1.14 | Arhgap28 nFC: 2.21 | Arl4d log2 nFC: 1.15 | Arl4d nFC: 2.23 | Arrdc2 log2 nFC: 1.24 | Arrdc2 nFC: 2.36 | Asgr1 log2 nFC: 1.80 | Asgr1 nFC: 3.49 | Baiap3 log2 nFC: 1.24 | Baiap3 nFC: 2.36 | Bbof1 log2 nFC: 1.11 | Bbof1 nFC: 2.15 | Bex2 log2 nFC: 1.46 | Bex2 nFC: 2.76 | Bpifa1 log2 nFC: 1.12 | Bpifa1 nFC: 2.18 | C130080G10Rik log2 nFC: 3.58 | C130080G10Rik nFC: 12.00 | Car3 log2 nFC: 1.57 | Car3 nFC: 2.96 | Casq2 log2 nFC: 2.36 | Casq2 nFC: 5.15 | Cbs log2 nFC: 1.38 | Cbs nFC: 2.61 | Ccdc81 log2 nFC: 1.15 | Ccdc81 nFC: 2.23 | Cd300lg log2 nFC: 1.18 | Cd300lg nFC: 2.27 | Chia1 log2 nFC: 1.16 | Chia1 nFC: 2.24 | Chrdl1 log2 nFC: 1.39 | Chrdl1 nFC: 2.62 | Cidec log2 nFC: 1.57 | Cidec nFC: 2.96 | Ckm log2 nFC: 2.32 | Ckm nFC: 5.00 | Ckmt2 log2 nFC: 2.73 | Ckmt2 nFC: 6.63 | Colq log2 nFC: 1.81 | Colq nFC: 3.52 | Cox6a2 log2 nFC: 1.42 | Cox6a2 nFC: 2.68 | Crtc2 log2 nFC: 1.47 | Crtc2 nFC: 2.76 | Csf3r log2 nFC: 1.69 | Csf3r nFC: 3.22 | Csrp3 log2 nFC: 2.07 | Csrp3 nFC: 4.19 | Cst8 log2 nFC: 1.41 | Cst8 nFC: 2.66 | Cxcl5 log2 nFC: 1.80 | Cxcl5 nFC: 3.49 | Cxcr2 log2 nFC: 1.19 | Cxcr2 nFC: 2.28 | Cyp2a5 log2 nFC: 1.66 | Cyp2a5 nFC: 3.15 | Cyp4b1 log2 nFC: 1.18 | Cyp4b1 nFC: 2.26 | Cytl1 log2 nFC: 1.67 | Cytl1 nFC: 3.18 | D630024D03Rik log2 nFC: 1.60 | D630024D03Rik nFC: 3.03 | Dpysl5 log2 nFC: 1.90 | Dpysl5 nFC: 3.73 | Ear1 log2 nFC: 1.11 | Ear1 nFC: 2.16 | Eml5 log2 nFC: 1.41 | Eml5 nFC: 2.65 | Esm1 log2 nFC: 1.28 | Esm1 nFC: 2.43 | Fabp12 log2 nFC: 1.43 | Fabp12 nFC: 2.69 | Faim2 log2 nFC: 2.03 | Faim2 nFC: 4.10 | Fam71f2 log2 nFC: 1.96 | Fam71f2 nFC: 3.88 | Fosb log2 nFC: 2.38 | Fosb nFC: 5.20 | Ggt1 log2 nFC: 1.91 | Ggt1 nFC: 3.77 | Gm867 log2 nFC: 2.18 | Gm867 nFC: 4.53 | Gm4956 log2 nFC: 1.08 | Gm4956 nFC: 2.12 | Gm9780 log2 nFC: 2.06 | Gm9780 nFC: 4.18 | Gm14964 log2 nFC: 1.87 | Gm14964 nFC: 3.65 | Gm20186 log2 nFC: 1.31 | Gm20186 nFC: 2.48 | Gm42722 log2 nFC: 1.79 | Gm42722 nFC: 3.46 | Gm49353 log2 nFC: 2.21 | Gm49353 nFC: 4.62 | Gnmt log2 nFC: 1.14 | Gnmt nFC: 2.20 | Gpat3 log2 nFC: 1.34 | Gpat3 nFC: 2.54 | Gria1 log2 nFC: 1.61 | Gria1 nFC: 3.05 | Gsta3 log2 nFC: 1.10 | Gsta3 nFC: 2.15 | Gzma log2 nFC: 1.70 | Gzma nFC: 3.26 | Hba-a1 log2 nFC: 1.21 | Hba-a1 nFC: 2.32 | Hba-a2 log2 nFC: 1.14 | Hba-a2 nFC: 2.21 | Hbb-bs log2 nFC: 1.10 | Hbb-bs nFC: 2.15 | Hbb-bt log2 nFC: 1.09 | Hbb-bt nFC: 2.13 | Hhatl log2 nFC: 2.05 | Hhatl nFC: 4.14 | Hpgd log2 nFC: 1.63 | Hpgd nFC: 3.10 | Igfbp3 log2 nFC: 1.75 | Igfbp3 nFC: 3.37 | Igfbp6 log2 nFC: 1.68 | Igfbp6 nFC: 3.21 | Inmt log2 nFC: 1.34 | Inmt nFC: 2.54 | Itga2b log2 nFC: 1.10 | Itga2b nFC: 2.15 | Kcne2 log2 nFC: 1.32 | Kcne2 nFC: 2.50 | Klf15 log2 nFC: 1.42 | Klf15 nFC: 2.67 | Klrc1 log2 nFC: 1.38 | Klrc1 nFC: 2.61 | Krt79 log2 nFC: 1.75 | Krt79 nFC: 3.36 | Ldb3 log2 nFC: 1.52 | Ldb3 nFC: 2.86 | Lrat log2 nFC: 1.15 | Lrat nFC: 2.22 | Mb log2 nFC: 2.27 | Mb nFC: 4.81 | Mir6979 log2 nFC: 1.18 | Mir6979 nFC: 2.26 | Mmp9 log2 nFC: 1.20 | Mmp9 nFC: 2.30 | Mpp3 log2 nFC: 1.65 | Mpp3 nFC: 3.14 | Ms4a4d log2 nFC: 1.15 | Ms4a4d nFC: 2.21 | Mybpc3 log2 nFC: 2.06 | Mybpc3 nFC: 4.18 | Mybphl log2 nFC: 2.33 | Mybphl nFC: 5.04 | Myh6 log2 nFC: 2.62 | Myh6 nFC: 6.14 | Myh7 log2 nFC: 2.22 | Myh7 nFC: 4.68 | Myl4 log2 nFC: 1.94 | Myl4 nFC: 3.85 | Myl7 log2 nFC: 1.90 | Myl7 nFC: 3.73 | Mylk3 log2 nFC: 2.03 | Mylk3 nFC: 4.08 | Myom2 log2 nFC: 1.87 | Myom2 nFC: 3.67 | Ngp log2 nFC: 2.72 | Ngp nFC: 6.57 | Nhlrc1 log2 nFC: 1.34 | Nhlrc1 nFC: 2.53 | Npr3 log2 nFC: 1.53 | Npr3 nFC: 2.88 | Nr4a3 log2 nFC: 1.63 | Nr4a3 nFC: 3.09 | Nrn1 log2 nFC: 1.84 | Nrn1 nFC: 3.59 | Numb log2 nFC: 1.49 | Numb nFC: 2.80 | Pdk4 log2 nFC: 1.64 | Pdk4 nFC: 3.11 | Phf24 log2 nFC: 1.57 | Phf24 nFC: 2.97 | Pln log2 nFC: 2.30 | Pln nFC: 4.92 | Pmvk log2 nFC: 1.09 | Pmvk nFC: 2.13 | Ppbp log2 nFC: 1.09 | Ppbp nFC: 2.13 | Ppp4r4 log2 nFC: 1.26 | Ppp4r4 nFC: 2.40 | Pram1 log2 nFC: 1.64 | Pram1 nFC: 3.12 | Prf1 log2 nFC: 1.34 | Prf1 nFC: 2.53 | Prmt8 log2 nFC: 1.27 | Prmt8 nFC: 2.41 | Pwwp3b log2 nFC: 1.22 | Pwwp3b nFC: 2.33 | Rab44 log2 nFC: 1.61 | Rab44 nFC: 3.05 | Rassf10 log2 nFC: 1.19 | Rassf10 nFC: 2.28 | Rbfox3 log2 nFC: 1.26 | Rbfox3 nFC: 2.40 | Rbm24 log2 nFC: 1.20

From paper PMC13198257, “An aerosolized dual-action autotaxin inhibitor-PPARγ agonist for the treatment of pulmonary fibrosis” (Cell Reports Medicine, 2026)
